One test concerns NCI-H1048 cells. The test can be described thus: MTT proliferation assay, NCI-H1048.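 Further: Dose-response in 96-well plates over 8 or 10 concentration points, with exposure spanning 3-4 cell doublings.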 Format: cell-based. To be noted: 5 days compound exposure, 1:3 serial dilution starting at 10 μM.
Another test concerns the target T1, CyclinB1/CDK1 (Homo sapiens, UniProt P14635).
T1 construct: purchased Eurofins, discovery 14-450
The test can be described thus: Fluorescence Polarization (FP) competitive binding assay, Cyclin B1/Cdk1.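 Further: fluorescence polarization read after equilibration at room temperature, with IC50 taken from serially diluted dose-response curves.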

The target in a further test is T2, CyclinA2/CDK2 (Homo sapiens, UniProt P20248).
T2 construct: purchased CRELUX Protein Services
Nature of the test: Fluorescence Polarization (FP) competitive binding assay, Cyclin A2/Cdk2.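 Further: plates equilibrated two hours at room temperature before polarization reading, IC50 fitted from eight-concentration compound titration curves.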

The next test deals with OVCAR3 cells. Nature of the test: MTT proliferation assay, OVCAR3.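 Further: compound given as an 8- or 10-point series, one day after plating, with exposure covering roughly 3-4 cell doublings.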 Particulars: 5 days compound exposure, 1:3 serial dilution starting at 10 μM. Format: cell-based.
A further test has as its target T3, CyclinE1/CDK2 (Homo sapiens, UniProt P24864).
T3 construct: purchased Eurofins, discovery 14-475
Nature of the test: Fluorescence Polarization (FP) competitive binding assay, Cyclin E1/Cdk2.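 Further: readings taken after two-hour equilibration at room temperature in HEPES buffer with NaCl, DTT, NP-40 and BSA, IC50 fitted from eight-concentration serial dilution series.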

The mark [1] stands for this setting: 10 nM Cyclin B1/Cdk1, 2 nM FAM probe; average of 2-3 independent experiments; read-out: Cyclin B FP IC50.
Setting [2] is: 8 nM Cyclin A2/Cdk2, 2 nM FAM probe; average of 2-3 independent experiments; read-out: Cyclin A FP IC50.
Where [3] appears, read: 10 nM Cyclin E1/Cdk2, 2 nM FAM probe, average of 2-3 independent experiments, read-out: Cyclin E FP IC50.

Like-named read-outs stand apart in the source and are kept apart here. *1 amine or outer side, *2 acyl side, *3 side chain or, on linkers, in order; H or OH if unused. Where a SMILES comes first, the peptide text is derived from it. Bridges are numbered along the chain shown (N, C = ends). [ ]: non-standard residue; d: D form. The star is where a group is joined. X184 = CC(=O)N1CCC(c2ccc(F)cc2C[C@@H](C(=O)[*:2])N(C)[*:1])CC1; X68 = CN([C@@H](Cc1cc(Cl)ccc1-c1cnn(C2CC2)c1)C(=O)[*:2])[*:1]; NMehhhLys(Me) = CN([C@@H](CCCCCCCN(C)[*:3])C(=O)[*:2])[*:1]; X112 = CN([C@@H](Cc1cc(F)ccc1-c1cnn(C)c1)C(=O)[*:2])[*:1]; NMe(hhhLys) = CN([C@@H](CCCCCCCN[*:3])C(=O)[*:2])[*:1]; X210 = CC(C)=Cc1ccc(Cl)cc1C[C@@H](C(=O)[*:2])N(C)[*:1]; X164 = C=C(C)c1ccc(Cl)cc1C[C@@H](C(=O)[*:2])N(C)[*:1]; cBuCO(3,3-F2-1-CF3) = O=C(C1(C(F)(F)F)CC(F)(F)C1)*; NMePhe(2,5-Cl2) = CN[C@@H](Cc1cc(Cl)ccc1Cl)C(=O)O; Pro(trans-4-F) = O=C(O)[C@@H]1C[C@@H](F)CN1; Gly(cPr) = N[C@H](C(=O)O)C1CC1

Regarding `CC(C)C[C@@H]1NC(=O)[C@@H](N(C)C(=O)[C@@H](NC(=O)[C@@H]2C[C@@H](F)CN2C(=O)C2(C(F)(F)F)CC(F)(F)C2)C2CC2)CC=CCCCCN(C)C(=O)[C@H](Cc2cc(F)ccc2-c2cncnc2)N(C)C1=O` [Example 38], the GI50 in the test with NCI-H1048 cells was found to be 60 nM; with OVCAR3 cells, 160 nM. For the same compound, the IC50 at CyclinB1/CDK1 (setting [1]) came to 20 nM; at CyclinA2/CDK2 (setting [2]), 180 nM; on CyclinE1/CDK2 (setting [3]) it was 1760 nM.
The like results for `CC(=O)N1CC=C(c2ccc(F)cc2C[C@H]2C(=O)N(C)CCCCC=CC[C@H](N(C)C(=O)[C@@H](NC(=O)[C@@H]3C[C@@H](F)CN3C(=O)C3(C(F)(F)F)CC(F)(F)C3)C3CC3)C(=O)N[C@@H](CC(C)C)C(=O)N2C)CC1` [Example 39] were, in that order, 90 nM, 210 nM, 20 nM, 60 nM and 940 nM.
The like results for `CC(C)C[C@@H]1NC(=O)[C@@H](N(C)C(=O)[C@@H](NC(=O)[C@@H]2C[C@@H](F)CN2C(=O)C2(C(F)(F)F)CCC2)C2CC2)CC=CCCCCN(C)C(=O)[C@H](Cc2cc(F)ccc2-c2cncnc2)N(C)C1=O` [Example 41] were, in that order, 100 nM, 130 nM, 20 nM, 160 nM and 810 nM.
Turning to `CC(=O)N1CC=C(c2ccc(F)cc2C[C@H]2C(=O)N(C)CCCCC=CC[C@H](N(C)C(=O)[C@@H](NC(=O)[C@@H]3C[C@@H](F)CN3C(=O)C3(C(F)(F)F)CCC3)C3CC3)C(=O)N[C@@H](CC(C)C)C(=O)N2C)CC1` [Example 42], the GI50 with NCI-H1048 cells was found to be 70 nM; in the test on OVCAR3 cells, 210 nM. The IC50 on CyclinB1/CDK1 (setting [1]) was determined as 20 nM; at CyclinA2/CDK2 (setting [2]), 40 nM; on CyclinE1/CDK2 (setting [3]), 440 nM.
For `CC(=O)N1CCC(c2ccc(F)cc2C[C@H]2C(=O)N(C)CCCCCCC[C@H](N(C)C(=O)[C@@H](NC(=O)[C@@H]3C[C@@H](F)CN3C(=O)C3(C(F)(F)F)CC(F)(F)C3)C3CC3)C(=O)N[C@@H](CC(C)C)C(=O)N2C)CC1` [Example 45, (2S,4R)—N—((S)-2-(((3S,6S,9S)-3-(2-(1-acetylpiperidin-4-yl)-5-fluorobenzyl)-6-isobutyl-1,4-dimethyl-2,5,8-trioxo-1,4,7-triazacyclohexadecan-9-yl)(methyl)amino)-1-cyclopropyl-2-oxoethyl)-1-(3,3-difluoro-1-(trifluoromethyl)cyclobutane-1-carbonyl)-4-fluoropyrrolidine-2-carboxamide] ({cBuCO(3,3-F2-1-CF3)}-[Pro(trans-4-F)][Gly(cPr)][NMehhhLys(Me)]L[X184]; lactam 3-C), in that order: 20 nM, 40 nM, 20 nM, 100 nM and 330 nM.
For `CC(C)C[C@@H]1NC(=O)[C@@H](N(C)C(=O)[C@@H](NC(=O)[C@@H]2C[C@@H](F)CN2C(=O)C2(C(F)(F)F)CC(F)(F)C2)C2CC2)CC=CCCCCN(C)C(=O)[C@H](Cc2cc(F)ccc2C2=CCCC2)N(C)C1=O` [Example 46], the results for the GI50 in the test with NCI-H1048 cells and in the test with OVCAR3 cells were 720 nM and 790 nM, respectively. The half-inhibitory concentration (IC50) at CyclinB1/CDK1 (setting [1]) turned out to be 20 nM; at CyclinA2/CDK2 (setting [2]), 20 nM; on CyclinE1/CDK2 (setting [3]), 350 nM.
Consider `CC(C)C[C@@H]1NC(=O)[C@@H](N(C)C(=O)[C@H](C)NC(=O)[C@@H]2C[C@@H](F)CN2C(=O)C2(C(F)(F)F)CC(F)(F)C2)CC=CCCCCNC(=O)[C@H](Cc2cc(Cl)ccc2Cl)N(C)C1=O` [Example 54], for which the results for the GI50 with NCI-H1048 cells and in the test with OVCAR3 cells were 470 nM and 700 nM, respectively. Besides, the results for the half-maximal inhibitory concentration (IC50) on CyclinB1/CDK1 (setting [1]), on CyclinA2/CDK2 (setting [2]) and at CyclinE1/CDK2 (setting [3]) were 30 nM, 390 nM and 3390 nM, respectively.
Regarding `CC(C)C[C@@H]1NC(=O)[C@@H](N(C)C(=O)[C@H](C)NC(=O)[C@@H]2C[C@@H](F)CN2C(=O)C2(C(F)(F)F)CC(F)(F)C2)CCCCCCCNC(=O)[C@H](Cc2cc(Cl)ccc2Cl)N(C)C1=O` [Example 55] ({cBuCO(3,3-F2-1-CF3)}-[Pro(trans-4-F)]A[NMe(hhhLys)]L[NMePhe(2,5-Cl2)]; lactam 3-C), the values for the GI50 with NCI-H1048 cells and with OVCAR3 cells were 560 nM and 710 nM, respectively. Further, the half-maximal inhibitory concentration (IC50) came out at 80 nM at CyclinB1/CDK1 (setting [1]), 700 nM at CyclinA2/CDK2 (setting [2]) and 3930 nM on CyclinE1/CDK2 (setting [3]).
Take `CC(=O)N1[C@H]2CC[C@@H]1C=C(c1ccc(F)cc1C[C@H]1C(=O)N(C)CCCCCCC[C@H](N(C)C(=O)[C@@H](NC(=O)[C@@H]3C[C@@H](F)CN3C(=O)C3(C(F)(F)F)CC(F)(F)C3)C3CC3)C(=O)N[C@@H](CC(C)C)C(=O)N1C)C2` [Example 58]: the 50% growth inhibitory concentration (GI50) in the test with NCI-H1048 cells and with OVCAR3 cells was 10 nM in each case. The IC50 on CyclinB1/CDK1 (read-out: Cyclin B FP IC50; 10 nM Cyclin B1/Cdk1, 2 nM FAM probe; average of 2-3 independent experiments) amounted to 20 nM; at CyclinA2/CDK2 (read-out: Cyclin A FP IC50; 8 nM Cyclin A2/Cdk2, 2 nM FAM probe; average of 2-3 independent experiments) it was 20 nM; at CyclinE1/CDK2, 620 nM.
`C=C(C)c1ccc(Cl)cc1C[C@H]1C(=O)NCCCCCCC[C@H](N(C)C(=O)[C@@H](NC(=O)[C@@H]2C[C@@H](F)CN2C(=O)C2(C(F)(F)F)CC(F)(F)C2)C2CC2)C(=O)N[C@@H](CC(C)C)C(=O)N1C` [Example 61] ({cBuCO(3,3-F2-1-CF3)}-[Pro(trans-4-F)][Gly(cPr)][NMe(hhhLys)]L[X164]; lactam 3-C): the GI50 is 20 nM in the test on NCI-H1048 cells and 40 nM in the test on OVCAR3 cells. Also, the IC50 was 20 nM on CyclinB1/CDK1 (setting [1]), 20 nM at CyclinA2/CDK2 (setting [2]) and 1010 nM at CyclinE1/CDK2 (setting [3]).
`CC(C)=Cc1ccc(Cl)cc1C[C@H]1C(=O)NCCCCCCC[C@H](N(C)C(=O)[C@@H](NC(=O)[C@@H]2C[C@@H](F)CN2C(=O)C2(C(F)(F)F)CC(F)(F)C2)C2CC2)C(=O)N[C@@H](CC(C)C)C(=O)N1C` [Example 62] ({cBuCO(3,3-F2-1-CF3)}-[Pro(trans-4-F)][Gly(cPr)][NMe(hhhLys)]L[X210]; lactam 3-C): the figures for the 50% growth inhibitory concentration (GI50) with NCI-H1048 cells and in the test with OVCAR3 cells were 60 nM and 70 nM, respectively. The IC50 is 20 nM at CyclinB1/CDK1 (setting [1]), 30 nM at CyclinA2/CDK2 (setting [2]) and 390 nM at CyclinE1/CDK2 (setting [3]).
As for `CC(C)C[C@@H]1NC(=O)[C@@H](N(C)C(=O)[C@@H](NC(=O)[C@@H]2C[C@@H](F)CN2C(=O)C2(C(F)(F)F)CC(F)(F)C2)C2CC2)CCCCCCCN(C)C(=O)[C@H](Cc2cc(F)ccc2-c2cnn(C)c2)N(C)C1=O` [Example 65] ({cBuCO(3,3-F2-1-CF3)}-[Pro(trans-4-F)][Gly(cPr)][NMehhhLys(Me)]L[X112]; lactam 3-C), the GI50 with NCI-H1048 cells and in the test with OVCAR3 cells was 10 nM in each case. The IC50 at CyclinB1/CDK1 (setting [1]) came to 20 nM; at CyclinA2/CDK2 (setting [2]), 20 nM; on CyclinE1/CDK2 (setting [3]), 270 nM.
`CC(C)C[C@@H]1NC(=O)[C@@H](N(C)C(=O)[C@@H](NC(=O)[C@@H]2C[C@@H](F)CN2C(=O)C2(C(F)(F)F)CC(F)(F)C2)C2CC2)CCCCCCCNC(=O)[C@H](Cc2cc(Cl)ccc2-c2cnn(C3CC3)c2)N(C)C1=O` [Example 67] ({cBuCO(3,3-F2-1-CF3)}-[Pro(trans-4-F)][Gly(cPr)][NMe(hhhLys)]L[X68]; lactam 3-C): the GI50 with NCI-H1048 cells and with OVCAR3 cells was 10 nM in each case. Further, the IC50 worked out at 20 nM on CyclinB1/CDK1 (setting [1]), 20 nM on CyclinA2/CDK2 (setting [2]) and 500 nM at CyclinE1/CDK2 (setting [3]).
As for `CC(=O)N1CC=C(c2ccc(Cl)cc2C[C@H]2C(=O)N(C)CCCCCC[C@H](N(C)C(=O)[C@@H](NC(=O)[C@@H]3C[C@@H](F)CN3C(=O)C3(C(F)(F)F)CC(F)(F)C3)C3CC3)C(=O)N[C@@H](CC(C)C)C(=O)N2C)CC1` [Example 74], the GI50 in the test with NCI-H1048 cells is 110 nM; in the test with OVCAR3 cells, 170 nM. For the same compound, the half-maximal inhibitory concentration (IC50) came out at 20 nM on CyclinB1/CDK1 (setting [1]), 50 nM at CyclinA2/CDK2 (setting [2]) and 3620 nM at CyclinE1/CDK2 (setting [3]).
